US6699662B1, “Inhibitors of staphylococcus SarA protein function involved in the expression of staphylococcal virulence factors and the use thereof in treating staphylococcal infections” (priority 1999, dated 2004)

Columns and labels:
[1] = test system: SarA-DNA complex (SarA and ds A1/A2 DNA); conditions: for effect of PNA added to the complexed SarA and radiolabeled ds A1/A2 DNA: PNA added to a mixture of SarA and ds A1/A2 DNA
Description: The first tests of potential inhibitors are made using EMSA. Briefly, ^32P-labeled DNA fragments that correspond to the PNA or HP molecules are used as the targets. […] The concentration of SarA required to bind 50% of the DNA fragment is determined empirically. To determine the degree of inhibition, a mixture of SarA and ^32P-labeled DNA that gives 50% free DNA and 50% bound DNA (called 100% in this assay) is titrated with the PNA molecule. The concentration of PNA that reduces the SarA-DNA complex by 50% is the IC50 value. Using this simple, but effective testing procedure, the PNA or HP design is varied with regard to the sequence targeted and the length of PNA or HP molecules.
The samples were analyzed by standard EMSA and phosphorimaging.

[2] = test system: A1/A2 oligonucleotide (SarA binding site of the agr locus); assay: EMSA of PNA binding to radiolabeled A1/A2 oligonucleotide; design: species or system Staphylococcus aureus
Description: The present invention also is directed to a method of identifying inhibitors of SarA function involved in the expression of staphylococcal virulence genes comprising: a) contacting a candidate inhibitor with at least one SarA binding site of the agr locus in solution to allow the binding reaction to equilibrate for a sufficient period of time; and b) assessing the binding of said candidate inhibitor to said SarA binding site of the agr locus. (See FIG. 15 for an example of the results of this method.) The method further comprises the addition of SarA to the solution of step a) simultaneously with the inhibitor and the SarA binding site, and then an assessment of the binding affinity of the candidate inhibitor relative to the binding affinity of the SarA to the SarA binding site of the agr locus. Alternatively, the addition of SarA to the solution of step a) is sequentially with the inhibitor and the SarA binding site, and then the assessment of the binding affinity of said candidate inhibitor relative to the binding affinity of said SarA to the SarA binding site of the agr locus. (See FIG. 16 for an example of the results of this method showing the results with and without the addition of SarA.)
A prototype PNA inhibitor of SarA-agr binding is constructed and tested. […] The complexes were resolved by native gel electrophoresis and detected by phosphorimaging. […]

Substance: gly-TCCAATTTTTCTTAACTA-lys [18-mer]
- competition with SarA for binding to A1/A2 DNA ([1]; 10 nM dsDNA incubated with PNA (0.750 pM, 7.5, 75, 750 nM) overnight, then 10 nM SarA added, FIG. 16): able to outcompete SarA for binding to the DNA
- effect of PNA added to the complexed SarA and radiolabeled ds A1/A2 DNA [1]: the complex changed from the SarA-DNA complex to the PNA-DNA complex

Substance: gly-TTTCTTAACTA-lys (N-terminal glycine and C-terminal lysine attached, backbone not given here, further chemistry not given here; listed as Staphylococcus aureus) [PNA-1]
- fraction of PNA active in the binding assay ([2]; 20 nM 32P-labeled A1/A2, FIG. 15): nearly all, if not all
- binding / affinity of PNA for the A1/A2 oligonucleotide ([2]; 20 nM 32P-labeled A1/A2, varying PNA concentrations, FIG. 15): very high
- effect of PNA added to the complexed SarA and radiolabeled ds A1/A2 DNA [1]: did not change this complex
